According to US7166435B2 (priority 2001, dated 2007):
“Also recorded” adds a separate entry of the source. Like-named read-outs stand apart in the source and are kept apart here.

Experiments:
Influenza A/Moscow/10/99 = type: cell-based; conditions: Citrate Buffer control
[1] = test system: Influenza B/Guangdong/120/00; type: cell-based; conditions: Citrate Buffer control
influenza virus = type: in vivo, ferret; conditions: for Mean Difference (I−J), Weight Change separated into pens: pairwise comparison
[2] = recipient ferrets, 8 per group, >2SD rise in temperature

Compound: O=C(O)CC(O)(CC(=O)O)C(=O)O [Citrate Buffer]
- A/Moscow log reductions (Influenza A/Moscow/10/99; 1 minute incubation): 1.00 −log10 TCID50
- Residual A/Moscow titer (Influenza A/Moscow/10/99; 1 minute incubation): 1.80 −log10 TCID50
- A/Moscow log reductions (Influenza A/Moscow/10/99; 2 minute incubation): 1.00 −log10 TCID50
- Residual A/Moscow titer (Influenza A/Moscow/10/99; 2 minute incubation): 1.80 −log10 TCID50
- A/Moscow log reductions (Influenza A/Moscow/10/99; 5 minute incubation): 2.80 −log10 TCID50
- Residual A/Moscow titer (Influenza A/Moscow/10/99; 5 minute incubation): 0.00 −log10 TCID50
- B/Guangdong log reductions ([1]; 1 minute incubation): 1.80 −log10 TCID50
- Residual B/Guangdong titer ([1]; 1 minute incubation): 0.00 −log10 TCID50
- B/Guangdong log reductions ([1]; 2 minute incubation): 1.80 −log10 TCID50
- Residual B/Guangdong titer ([1]; 2 minute incubation): 0.00 −log10 TCID50
- B/Guangdong log reductions ([1]; 5 minute incubation): 1.80 −log10 TCID50
- Residual B/Guangdong titer ([1]; 5 minute incubation): 0.00 −log10 TCID50

Compound: CCOC(=O)C1=C[C@@H](OC(CC)CC)[C@H](NC(C)=O)[C@@H](N)C1 [Tamiflu ™, oseltamivir phosphate]
- No. of Ferrets per pen with Fever (>2SD rise), mild febrile illness (influenza virus; four recipient ferrets per pen, pens a and b): 2
- X^2 analysis of fever (2SD rise), p PBS versus treatment (influenza virus; in vivo): 0.106
- X^2 analysis of fever (3SD rise), p PBS versus treatment (influenza virus; in vivo): 0.106
- seroconversion of recipient ferrets (influenza virus; in vivo): did not seroconvert; also recorded: no seroconversion
- Mean Difference (I−J), Weight Change separated into pens (influenza virus; (I) group PBS minus (J) treatment group, recipient ferrets, weight loss peak to trough as percentage of day 0 baseline weight): −1.880
- weight loss, p PBS versus treatment (influenza virus; recipient ferrets): 0.003
- % within Group No., Fever => 2SD rise from baseline: No (influenza virus; [2]): 50%
- % within Group No., Fever => 2SD rise from baseline: yes (influenza virus; [2]): 50%
- Count of ferrets, Fever => 2SD rise from baseline: No (influenza virus; [2]): 4
- Count of ferrets, Fever => 2SD rise from baseline: yes (influenza virus; [2]): 4
- Weight Change separated into pens, Mean (influenza virus; recipient ferrets, peak to trough as a percentage of the baseline weight on day 0): −.980%
- No. of ferrets per group with Fever (>2SD rise), mild febrile illness (influenza virus; two pens per group): 4
- No. of ferrets per group with Fever (>3SD rise) (influenza virus; two pens per group): 1

Compound: CCOC(=O)C1=C[C@@H](OC(CC)CC)[C@H](NC(C)=O)[C@@H](N)C1 [Tamiflu]
- Mean Difference (I−J), Weight Change separated into pens (influenza virus; (I) treatment group minus (J) 25% horseradish): .161
- Mean Difference (I−J), Weight Change separated into pens (influenza virus; (I) treatment group minus (J) 50% horseradish): .497
- Mean Difference (I−J), Weight Change separated into pens (influenza virus; (I) treatment group minus (J) 100% Horseradish): .251
- Mean Difference (I−J), Weight Change separated into pens (influenza virus; (I) treatment group minus (J) PBS, recipient ferrets): −1.880
